Measurements published in BindingDB's records for patent US12187709 (Genentech, 2025).

How the values were obtained:
[1] = molecular target: T1, E3 ubiquitin-protein ligase CBL (Homo sapiens, UniProt P22681); experiment: Cbl-b and C-Cbl LCK Ub TR-FRET Assay
Description: 6 μL of detection mixture was added to all wells and briefly centrifuged before incubating for 20 min at room temperature. […] IC50 was generated using no LCK as the low control and DMSO as the high control.

[2] = molecular target: T1, E3 ubiquitin-protein ligase CBL; experiment: Multi-Point Chaser SPR Assay Variation
Description: (§1) Table 4: Chaser assay utilize a single cycle kinetics SPR experiment with a contact time of 120 seconds, a flow rate of 50 μl/min and a dissociation time of 450 seconds. […] The kd is measured independently by determining the percentage unoccupied compound binding site over time by measuring the binding of a chaser compound measured by SPR.Chaser binding was measured by a multicycle kinetics SPR experiment using a contact time of 20 seconds, a flow rate of 30 μl/min, and a dissociation time of 120 seconds. […] The % compound bound at a given time was determined by comparison to a single injection of chaser preceding the single cycle kinetics titration defined below.% Compound Bound=(1−(RUT/RUT0))*100

[3] = molecular target: E3 ubiquitin-protein ligase CBL-B (Homo sapiens, UniProt Q13191); experiment: Multi-Point Chaser SPR Assay Variation
Chain of E3 ubiquitin-protein ligase CBL-B (Q13191 whole entry): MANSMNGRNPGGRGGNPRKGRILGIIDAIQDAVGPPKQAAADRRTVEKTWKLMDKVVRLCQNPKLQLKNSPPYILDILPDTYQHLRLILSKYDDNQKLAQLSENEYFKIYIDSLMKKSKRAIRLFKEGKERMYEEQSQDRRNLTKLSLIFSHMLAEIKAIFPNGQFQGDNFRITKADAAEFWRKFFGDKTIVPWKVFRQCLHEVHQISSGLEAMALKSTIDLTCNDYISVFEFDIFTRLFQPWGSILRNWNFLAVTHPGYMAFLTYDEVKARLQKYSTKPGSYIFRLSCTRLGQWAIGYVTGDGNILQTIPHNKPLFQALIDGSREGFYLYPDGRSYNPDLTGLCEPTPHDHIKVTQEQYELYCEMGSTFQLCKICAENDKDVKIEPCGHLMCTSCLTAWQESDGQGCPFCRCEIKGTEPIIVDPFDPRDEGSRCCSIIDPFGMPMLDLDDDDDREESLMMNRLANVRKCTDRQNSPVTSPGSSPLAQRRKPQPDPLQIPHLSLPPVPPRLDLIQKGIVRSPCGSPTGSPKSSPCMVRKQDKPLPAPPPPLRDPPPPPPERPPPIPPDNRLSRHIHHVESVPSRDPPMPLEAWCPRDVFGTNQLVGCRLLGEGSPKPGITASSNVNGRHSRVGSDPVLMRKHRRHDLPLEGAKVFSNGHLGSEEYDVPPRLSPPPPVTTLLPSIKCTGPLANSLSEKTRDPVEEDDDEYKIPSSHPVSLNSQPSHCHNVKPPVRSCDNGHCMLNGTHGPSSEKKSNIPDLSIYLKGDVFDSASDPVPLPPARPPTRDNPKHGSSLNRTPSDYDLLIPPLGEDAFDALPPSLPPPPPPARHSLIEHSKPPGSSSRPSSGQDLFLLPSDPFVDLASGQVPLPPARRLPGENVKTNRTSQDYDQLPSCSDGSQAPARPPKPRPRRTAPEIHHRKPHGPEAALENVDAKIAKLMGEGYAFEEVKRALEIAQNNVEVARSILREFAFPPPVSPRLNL
Description: as §1

Row | SMILES | IC50 [1] | Kd [2] | Kd [3]
1 | CO[C@@](c1cccc(N2Cc3c(cc(CNC4(C)CCC4)cc3C(F)(F)F)C2=O)c1)(c1nncn1C)C1CCC1 (single isomer, unassigned) [US12187709, Compound 118] | ≥ 20000 nM | – | –
2 | Cn1cnnc1[C@]1(c2cc(NC3CCCCC3)nc(N3Cc4c(cc(CNC5(C)CCC5)cc4C(F)(F)F)C3=O)c2)C[C@H](C)C1 [US12187709, Compound 51] | 61 nM | – | –
3 | Cn1cnnc1[C@]1(c2cc(OC3CCCC3)nc(N3Cc4c(cc(CNC5(C)CCC5)cc4C(F)(F)F)C3=O)c2)C[C@H](C)C1 [US12187709, Compound 54] | 115 nM | 15 nM | 1.3 nM
4 | CC(=O)N1CC(c2cccc(N3Cc4c(cc(CNC5(C)CCC5)cc4C(F)(F)F)C3=O)c2)(c2nncn2C)C1 [US12187709, Compound 112] | ≥ 20000 nM | – | –

These reach a lower IC50 [1]. Values come first.

Row | IC50 [1] | Kd [2] | Kd [3] | SMILES
5 | 53 nM | 20 nM | 6.5 nM | Cn1cnnc1[C@]1(c2cc(NC3CCCCC3)nc(N3Cc4c(cc(CNC5(C)CCC5)cc4C(F)(F)F)C3=O)c2)C[C@@H](C)C1 [US12187709, Compound 50]
6 | 9.4 nM | 11 nM | 0.95 nM | Cn1cnnc1[C@]1(c2cc(NC3CCCC3)nc(N3Cc4c(cc(CNC5(C)CCC5)cc4C(F)(F)F)C3=O)c2)C[C@@H](C)C1 [US12187709, Compound 52]
7 | 6.3 nM | 6.5 nM | 0.7 nM | Cn1cnnc1[C@]1(c2cc(NC3CCCC3)nc(N3Cc4c(cc(CNC5(C)CCC5)cc4C(F)(F)F)C3=O)c2)C[C@H](C)C1 [US12187709, Compound 53]
8 | 9.4 nM | – | – | Cn1cnnc1[C@]1(c2cc(OC3CCCC3)nc(N3Cc4c(cc(CNC5(C)CCC5)cc4C(F)(F)F)C3=O)c2)C[C@@H](C)C1 [US12187709, Compound 55]
